Assay type in all cases: cell-based, human
For data set [1], the system named is HepG2 NF-κB/Luc/sr39tk cells. Put plainly: Cytotoxic effect of GCV on HepG2 NF-κB/Luc/sr39tk cells (WST-1 cell survival). Conditions: GCV 0.001-500 μM, 96 h. On the procedure:
HepG2 NF-κB/luc/sr39tk was cultured at 3000 cells/well in 96 well plate format to attach the cells onto the plate, then drug-treated for 48 h with different concentrations of GCV at 0.001, 0.01, 0.1, 1, 50, 100 and 500 μM respectively, and then treated with fresh culture media containing GCV drug, and after 96 h of experiment, the culture media containing GCV drug was removed, then chromogenic reaction was carried out with WST-1 at 37° C. for 2 h, and finally analyzed by enzyme-linked immunosorbent assay (ELISA) at wavelengths of 450 nm and 620 nm respectively and plotted to obtain cell survival rate for calculation of cytotoxic effect of drug.
(Tetrazolium dyes change colour on reduction, which living cells bring about.)

Another data set deals with HepG2 cells. Put plainly: 131I-FIAU uptake experiment in HepG2 cells. Conditions: reacted 2 h. On the procedure:
(§1) This experiment is provided to analyze uptake of 131I-FIAU drug by HepG2 NF-κB/Luc/sr39tk transformed cells. HepG2 NF-κB/Luc/sr39tk transformed cells were cultured overnight in a 6-well plate at 1×10^6 cells/well to attach the cells onto the plate. Then, 1 ml/well of labeled ^131I-FIAU was added into the cells and reacted for 2 h, and then the cells was washed with ice-cold PBS to quench the drug reaction, and detected for radioactivity. FIG. 4 is uptake effect of ^131I-FIAU in HepG2 NF-κB/Luc/sr39tk cell, in which X axis represents different transformed cell line; and Y axis is uptake amount of ^131I-FIAU per 0.1 million cells.

The next data set relates to HepG2 NF-κB/Luc cells. Put plainly: 131I-FIAU uptake experiment in HepG2 NF-κB/Luc cells. The settings on record: reacted 2 h. On the procedure:
as §1

The test system of data set [2] is HepG2 NF-κB/Luc/sr39tk cells. Put plainly: 131I-FIAU uptake experiment in co-transformed HepG2 NF-κB/Luc/sr39tk cells. Conditions: reacted 2 h. On the procedure:
as §1

Each structure is given as a SMILES string.

For `Nc1nc(O)c2ncn(COC(CO)CO)c2n1` [GCV, ganciclovir], the “cytotoxic effect (cell survival rate) compared with control group (HepG2)” value in data set [1] (1—18 cell line) and in data set [1] (2—24 cell line) was “obvious cytotoxic effect” in each case.

On to `O=c1[nH]c(=O)n([C@@H]2O[C@H](CO)[C@@H](O)[C@@H]2F)cc1[131I]` [131I-FIAU], for which the “uptake efficiency for 131I-FIAU” value in the data set with HepG2 cells and in the data set with HepG2 NF-κB/Luc cells was “very low uptake efficiency” each time. The “uptake amount of 131I-FIAU per 0.1 million cells” value is reported as 20.1±0.41% in data set [2] (1—17 cell line); 41.5±1.00% in data set [2] (1—18 cell line); 27.2±1.07% in data set [2] (1—34 cell line); 22.9±0.68% in data set [2] (2—24 cell line); 12.9±0.45% in data set [2] (2—27 cell line).

Source of the values: patent publication US20120295349A1, “MAMMAL DEDICATED CELL LINE FROM HUMAN HEPATOCELLULAR CARCINOMA CELL” (Institute of Nuclear Energy Research Atomic Energy Council, …, priority 2009, published 2012).
